# Data reported in patent publication US20090253794A1, “Fibroblast Activator, Collagen Production Promoter, Collagen Contraction Promoter, Hyaluronic Acid Production Promoter, ATP Production Promoter, Melanin Formation Inhibitor, and Agent for External Application to the Skin” (priority 2005, published 2009).
# Marks after values point to notes of the source that are not given here.
# Key:
# human normal melanocytes = assay: melanin formation suppression test in human melanocytes (L-DOPA, absorbance 495 nm); type: cell-based; details: 5 days, relative value, without addition of sample = 100
# Experimental: A melanin formation suppression test was performed using human melanocytes (manufactured by KURABO INDUSTRIES LTD.). That is, human normal melanocytes amplified in Medium 254 medium (human melanocyte medium added with HMGS, manufactured by KURABO INDUSTRIES LTD.) was added to a 96 well plate at 10^4 cells per well, and cultured in a carbon dioxide incubator adjusted to 5% (v/v) carbon dioxide gas at 37° C. for about 24 hr. Then, pure water or a sample (conagenin) dissolved in pure water was added thereto to a final concentration of 0.1 mM, 1.0 mM or 10 mM. As a positive control, kojic acid (manufactured by Sigma Ltd.) was added to the same concentration. The cells were cultured for 5 more days under the same conditions. To the recovered cells was added 50 μl of cell suspension (PBS buffer containing Triton X-100 at 0.1% (v/v)). After thorough suspending, the suspension was stood at 4° C. for 1 hr. Thereto was added 50 μl of 10 mM L-DOPA (manufactured by Nacalai Tesque), and the mixture was incubated at 37° C. for 1 hr. Thereafter, the absorbance at 495 nm was measured by a plate reader (multiscanplus MKII, manufactured by Japan Flow Laboratory), and the melanin formation amount was measured (shown in a relative value to the value without addition of sample as 100).
# [1] = test system: normal human skin fibroblasts; assay: collagen gel contraction promoting effect; type: cell-based; details: one week, negative control = 1
# Experimental: A collagen solution (collagen was used trade name I-AC manufactured by KOUKEN Co., Ltd.) dissolved in normal human skin fibroblasts (manufactured by KURABO INDUSTRIES LTD., 1×10^5 cells/ml) was prepared on ice according to the explanation insert attached to the product, and the collagen was gelled in 6 wells at 37° C. Thereafter, 0.25% FBS/DMEM medium containing a sample ([…]) was added. The gel was detached from the dish wall, and the level of contraction of the gelled collagen was examined. As a positive control, DMEM medium containing 10% FBS instead of 0.25% FBS was used. The medium was changed every 2 days and, one week later, the medium was removed by suction. The diameter of the collagen gel was measured, the area was calculated, and the area ratio was compared to that of the negative control as 1.
# [2] = test system: normal human skin fibroblasts; assay: ATP production promotion (ATP Lite luminescence); type: cell-based; details: for ATP amount (average ATP amount without addition of sample is 100): 48 hr, n = 4, mean ± standard deviation
# Experimental: The evaluation was performed according to the following procedure. Normal human skin fibroblasts (manufactured by KURABO INDUSTRIES LTD.) were plated on a 96 well microplate at 2.0×10^4 cells per well. As the medium for plating, commercially available Medium 106S (manufactured by KURABO INDUSTRIES LTD.) containing 2% FBS, heparin 10 μg/ml and hydrocortisone 1 μg/ml was used. After culture for 24 hr, the medium was changed to a medium supplemented with various concentrations of conagenin, and the cells were cultured for 48 hr.
# Then, the medium was removed from the 96 well microplate, and the amount of ATP synthesized in the cell was measured using a ATP measurement kit (ATP Lite, manufactured by PerkinElmer, Inc.). That is, the cells were washed with PBS(−), the cell membrane was lysed with a Lysis solution, a luminescence substrate was added, and the mixture was transferred to a black 96 well microplate (View Plate). The chemical luminescence was measured with a luminometer. The effect of the sample was evaluated using, as an index, the average ATP amount without addition of the sample as 100. For statistical processing, parametric multiple comparison (Dunnett Type) relative to control group without addition of the sample was performed, wherein a risk rate of less than 5% is indicated with *, a risk rate of less than 1% is indicated with ** and a risk rate of less than 0.1% is indicated with ***.
# [3] = test system: mouse B16 melanoma strain; assay: melanin formation amount after L-DOPA incubation (absorbance 495 nm), cells of Example 7; type: cell-based; details: FIG. 1; cells of Example 7 (0.1, 1.0, 10 mM); absorbance at 495 nm
# Experimental: To the cells recovered in Example 7 was added 100 μl of cell suspension (PBS buffer containing Triton X-100 at 0.1% (v/v)). After thorough suspending, the suspension was stood at 4° C. for 1 hr. Thereto was added 100 μl of 10 mM L-DOPA (manufactured by Nacalai Tesque), and the mixture was incubated at 37° C. for 1 hr. Thereafter, the absorbance at 495 nm was measured by a plate reader (multiscanplus MKII, manufactured by Japan Flow Laboratory), and the melanin formation amount was measured.
# B16 melanoma cells = assay: melanin formation suppression test, visual whitening and cell mass volume; type: cell-based, mouse; parameters: key to level of whitening: whitening high→++; whitening moderate→+; somewhat whitened→+−; no whitening→−; details: 5 days; for level of whitening: visual evaluation; for change in cell mass volume: visual, cytotoxicity index
# Experimental: A melanin formation suppression test was performed as follows using mouse melanoma cells. First, 2×10^4 B16 melanoma cells were plated in a 35 mm diameter dish containing Eagle's minimum nutrition medium (3 ml) supplemented with 10% (v/v) fetal bovine serum, and cultured in a carbon dioxide incubator adjusted to 5% (v/v) carbon dioxide gas at 37° C. for about 24 hr. Then, pure water or a sample dissolved in pure water was added thereto to a final concentration of 0.1 mM, 1.0 mM or 10 mM. As a positive control, kojic acid (manufactured by Sigma Ltd.) was added to the same concentration. The cells were cultured for 5 more days under the same conditions, treated with trypsin, and centrifuged to collect the cells in a 1.5 ml Eppendorf. The level of whitening of the cells was visually evaluated, and indicated: whitening high→++; whitening moderate→+; somewhat whitened→+−; no whitening→−. Simultaneously, changes in the cell mass volume was visually evaluated and used as a cytotoxicity index.
structure (smiles),measurement,setting,value
"C[C@@H]([C@@H](C)O)[C@@H](O)C(=O)N[C@@](C)(CO)C(=O)O [conagenin, (2S)—N-[(2R,3S,4R)2,4-dihydroxy-3-methyl-pentanoyl]-2-methylserine]",melanin formation amount,human normal melanocytes; 100 μM,92
same,melanin formation amount,human normal melanocytes; 1 mM,66
same,melanin formation amount,human normal melanocytes; 10 mM,17
same,collagen gel area ratio,[1]; 1 μM in 0.25% FBS/DMEM,0.47
same,collagen gel area ratio,[1]; 100 μM in 0.25% FBS/DMEM,0.44
same,collagen gel area ratio,[1]; 5 mM in 0.25% FBS/DMEM,0.42
same,ATP amount (average ATP amount without addition of sample is 100),[2]; 0.20 μM,120 ± 18
same,ATP amount (average ATP amount without addition of sample is 100),[2]; 0.39 μM,146 ± 30***
same,ATP amount (average ATP amount without addition of sample is 100),[2]; 0.78 μM,128 ± 8*
same,ATP amount (average ATP amount without addition of sample is 100),[2]; 1.56 μM,133 ± 8**
same,ATP amount (average ATP amount without addition of sample is 100),[2]; 3.13 μM,150 ± 20***
same,ATP amount (average ATP amount without addition of sample is 100),[2]; 6.25 μM,155 ± 26***
same,ATP amount (average ATP amount without addition of sample is 100),[2]; 12.5 μM,160 ± 7***
same,ATP amount (average ATP amount without addition of sample is 100),[2]; 25 μM,153 ± 4***
same,ATP amount (average ATP amount without addition of sample is 100),[2]; 50 μM,168 ± 13***
same,ATP amount (average ATP amount without addition of sample is 100),[2]; 100 μM,164 ± 16***
same,concentration at which a statistically significant ATP production promoting action was observed,[2]; Dunnett comparison with the group without addition,not less than 0.39 μM
same,melanin formation amount,[3],suppresses melanin formation at a low concentration
same,level of whitening,B16 melanoma cells; 0.1 mM,+
same,change in cell mass volume,B16 melanoma cells; 0.1 mM,none
same,level of whitening,B16 melanoma cells; 1 mM,++
same,change in cell mass volume,B16 melanoma cells; 1 mM,none
same,level of whitening,B16 melanoma cells; 10 mM,++
same,change in cell mass volume,B16 melanoma cells; 10 mM,none
